Normal melting temperature data for 1 compound are collected here from the NIST ThermoML archive (doi:10.1021/je900646u).

The conditions of this series: Crystal; DTA.

Numbers after ± are expanded uncertainties.

Regarding `Nc1ccc(O)c(C(=O)O)c1` [5-aminosalicylic acid], the Normal melting temperature was 281.00 ± 0.5 °C.
